Measurements as given in patent publication US11629201B2, “PSMA-binding agents and uses thereof” (ITM Isotope Technologies Munich SE, priority 2017, dated 2023).

Tested on: PC-3 PIP/flu tumor-bearing mice
Test: Biodistribution studies in PC-3 PIP/flu tumor-bearing mice
Conditions: for Tumor-to-blood / Tumor-to-kidney / Tumor-to-liver: PC-3 PIP tumor

O=C(O)CCC(NC(=O)NC(CCCCNC(=O)C(Cc1ccc2ccccc2c1)NC(=O)C1CCC(n2cc(CC(NC(=O)CN3CCN(CC(=O)O)CCN(CC(=O)O)CCN(CC(=O)O)CC3)C(=O)NC(CCCCNC(=O)CCCc3ccc(I)cc3)C(=O)O)nn2)CC1)C(=O)O)C(=O)O (stereo not shown) [^177Lu-PSMA-ALB-01, metal not drawn]
Tumor-to-blood (1 h p.i.): 0.30 ± 0.06 | Tumor-to-kidney (1 h p.i.): 0.46 ± 0.04 | Tumor-to-liver (1 h p.i.): 1.56 ± 0.30 | Blood (4 h p.i.): 25.6 ± 1.53 % IA/g | Bone (4 h p.i.): 3.01 ± 0.09 % IA/g | Heart (4 h p.i.): 8.71 ± 0.50 % IA/g | Intestines (4 h p.i.): 4.17 ± 0.70 % IA/g | Kidneys (4 h p.i.): 24.6 ± 0.38 % IA/g | Liver (4 h p.i.): 5.92 ± 0.07 % IA/g | Lung (4 h p.i.): 14.1 ± 0.99 % IA/g | Muscle (4 h p.i.): 2.06 ± 0.80 % IA/g | PC-3 PIP Tumor (4 h p.i.): 20.4 ± 0.39 % IA/g | PC-3 flu Tumor (4 h p.i.): 5.03 ± 1.61 % IA/g | Salivary glands (4 h p.i.): 5.20 ± 0.73 % IA/g | Spleen (4 h p.i.): 5.34 ± 0.90 % IA/g | Stomach (4 h p.i.): 3.30 ± 0.05 % IA/g | Tumor-to-blood (4 h p.i.): 0.80 ± 0.03 | Tumor-to-kidney (4 h p.i.): 0.83 ± 0.03 | Tumor-to-liver (4 h p.i.): 3.45 ± 0.03 | Blood (8 h p.i.): 21.0 ± 2.86 % IA/g | Bone (8 h p.i.): 2.54 ± 0.26 % IA/g | Heart (8 h p.i.): 7.16 ± 1.23 % IA/g | Intestines (8 h p.i.): 2.44 ± 0.17 % IA/g | Kidneys (8 h p.i.): 22.6 ± 2.38 % IA/g | Liver (8 h p.i.): 5.31 ± 1.23 % IA/g | Lung (8 h p.i.): 11.6 ± 0.83 % IA/g | Muscle (8 h p.i.): 1.63 ± 0.27 % IA/g | PC-3 PIP Tumor (8 h p.i.): 25.5 ± 2.02 % IA/g | PC-3 flu Tumor (8 h p.i.): 4.01 ± 0.79 % IA/g | Salivary glands (8 h p.i.): 4.45 ± 0.56 % IA/g | Spleen (8 h p.i.): 4.05 ± 0.69 % IA/g | Stomach (8 h p.i.): 2.45 ± 0.43 % IA/g | Tumor-to-blood (8 h p.i.): 1.22 ± 0.08 | Tumor-to-kidney (8 h p.i.): 1.13 ± 0.07 | Tumor-to-liver (8 h p.i.): 4.97 ± 1.21 | Blood (24 h p.i.): 14.2 ± 1.40 % IA/g | Bone (24 h p.i.): 1.58 ± 0.06 % IA/g | Heart (24 h p.i.): 5.93 ± 0.65 % IA/g | Intestines (24 h p.i.): 2.12 ± 0.20 % IA/g | Kidneys (24 h p.i.): 22.7 ± 2.18 % IA/g | Liver (24 h p.i.): 2.92 ± 0.67 % IA/g | Lung (24 h p.i.): 8.62 ± 1.47 % IA/g | Muscle (24 h p.i.): 1.34 ± 0.14 % IA/g | PC-3 PIP Tumor (24 h p.i.): 38.2 ± 2.59 % IA/g | PC-3 flu Tumor (24 h p.i.): 3.95 ± 0.82 % IA/g | Salivary glands (24 h p.i.): 3.38 ± 0.32 % IA/g | Spleen (24 h p.i.): 3.60 ± 0.43 % IA/g | Stomach (24 h p.i.): 1.39 ± 0.07 % IA/g | Tumor-to-blood (24 h p.i.): 2.71 ± 0.39 | Tumor-to-kidney (24 h p.i.): 1.69 ± 0.07 | Tumor-to-liver (24 h p.i.): 13.5 ± 2.79 | Blood (48 h p.i.): 12.0 ± 2.18 % IA/g | Bone (48 h p.i.): 1.64 ± 0.34 % IA/g | Heart (48 h p.i.): 4.42 ± 0.81 % IA/g | Intestines (48 h p.i.): 1.84 ± 0.54 % IA/g | Kidneys (48 h p.i.): 25.2 ± 4.15 % IA/g | Liver (48 h p.i.): 3.03 ± 0.63 % IA/g | Lung (48 h p.i.): 7.67 ± 0.83 % IA/g | Muscle (48 h p.i.): 1.35 ± 0.46 % IA/g | PC-3 PIP Tumor (48 h p.i.): 65.6 ± 1.84 % IA/g | PC-3 flu Tumor (48 h p.i.): 4.64 ± 1.84 % IA/g | Salivary glands (48 h p.i.): 3.96 ± 0.98 % IA/g | Spleen (48 h p.i.): 4.62 ± 1.12 % IA/g | Stomach (48 h p.i.): 1.49 ± 0.47 % IA/g | Tumor-to-blood (48 h p.i.): 5.54 ± 0.76 | Tumor-to-kidney (48 h p.i.): 2.64 ± 0.40 | Tumor-to-liver (48 h p.i.): 22.2 ± 4.11 | Blood (96 h p.i.): 6.68 ± 0.85 % IA/g | Bone (96 h p.i.): 1.07 ± 0.22 % IA/g | Heart (96 h p.i.): 2.70 ± 0.37 % IA/g | Intestines (96 h p.i.): 1.05 ± 0.17 % IA/g | Kidneys (96 h p.i.): 13.0 ± 1.30 % IA/g | Liver (96 h p.i.): 1.88 ± 0.36 % IA/g | Lung (96 h p.i.): 5.07 ± 0.66 % IA/g | Muscle (96 h p.i.): 0.82 ± 0.12 % IA/g | PC-3 PIP Tumor (96 h p.i.): 62.3 ± 3.56 % IA/g | PC-3 flu Tumor (96 h p.i.): 2.76 ± 0.23 % IA/g | Salivary glands (96 h p.i.): 2.22 ± 0.38 % IA/g | Spleen (96 h p.i.): 3.12 ± .015 % IA/g | Stomach (96 h p.i.): 0.81 ± 0.04 % IA/g | Tumor-to-blood (96 h p.i.): 9.39 ± 0.65 | Tumor-to-kidney (96 h p.i.): 4.80 ± 0.20 | Tumor-to-liver (96 h p.i.): 33.7 ± 4.33 | Blood (144 h p.i.): 5.78 ± 0.90 % IA/g | Bone (144 h p.i.): 0.99 ± 0.20 % IA/g | Heart (144 h p.i.): 2.23 ± 0.29 % IA/g | Intestines (144 h p.i.): 1.07 ± 0.13 % IA/g | Kidneys (144 h p.i.): 10.2 ± 3.41 % IA/g | Liver (144 h p.i.): 1.56 ± 0.16 % IA/g | Lung (144 h p.i.): 4.90 ± 0.58 % IA/g | Muscle (144 h p.i.): 0.66 ± 0.15 % IA/g | PC-3 PIP Tumor (144 h p.i.): 78.4 ± 8.57 % IA/g | PC-3 flu Tumor (144 h p.i.): 2.82 ± 0.24 % IA/g | Salivary glands (144 h p.i.): 1.68 ± 0.53 % IA/g | Spleen (144 h p.i.): 4.32 ± 0.57 % IA/g | Stomach (144 h p.i.): 0.84 ± 0.13 % IA/g | Tumor-to-blood (144 h p.i.): 13.8 ± 2.38 | Tumor-to-kidney (144 h p.i.): 8.05 ± 1.77 | Tumor-to-liver (144 h p.i.): 50.5 ± 6.28 | Blood (192 h p.i.): 5.21 ± 1.37 % IA/g | Bone (192 h p.i.): 0.86 ± 0.17 % IA/g | Heart (192 h p.i.): 2.12 ± 0.68 % IA/g | Intestines (192 h p.i.): 1.02 ± 0.25 % IA/g | Kidneys (192 h p.i.): 7.56 ± 1.44 % IA/g | Liver (192 h p.i.): 1.51 ± 0.37 % IA/g | Lung (192 h p.i.): 4.12 ± 0.96 % IA/g | Muscle (192 h p.i.): 0.64 ± 0.13 % IA/g | PC-3 PIP Tumor (192 h p.i.): 75.6 ± 22.0 % IA/g | PC-3 flu Tumor (192 h p.i.): 2.73 ± 0.84 % IA/g | Salivary glands (192 h p.i.): 1.78 ± 0.34 % IA/g | Spleen (192 h p.i.): 4.09 ± 1.12 % IA/g | Stomach (192 h p.i.): 0.73 ± 0.12 % IA/g | Tumor-to-blood (192 h p.i.): 14.5 ± 1.84 | Tumor-to-kidney (192 h p.i.): 9.87 ± 1.05 | Tumor-to-liver (192 h p.i.): 50.2 ± 7.38
